The values below come from US9278942B2, “Non-steroidal compounds as androgen receptor modulators” (FLX Discoveries Oy, priority 2011, dated 2016).

Assay [1] has as its target T1, human AR (Homo sapiens, UniProt P10275).
T1 construct: expressed in transfected cells; host or cells: COS-1
T1 sequence (P10275 1-920): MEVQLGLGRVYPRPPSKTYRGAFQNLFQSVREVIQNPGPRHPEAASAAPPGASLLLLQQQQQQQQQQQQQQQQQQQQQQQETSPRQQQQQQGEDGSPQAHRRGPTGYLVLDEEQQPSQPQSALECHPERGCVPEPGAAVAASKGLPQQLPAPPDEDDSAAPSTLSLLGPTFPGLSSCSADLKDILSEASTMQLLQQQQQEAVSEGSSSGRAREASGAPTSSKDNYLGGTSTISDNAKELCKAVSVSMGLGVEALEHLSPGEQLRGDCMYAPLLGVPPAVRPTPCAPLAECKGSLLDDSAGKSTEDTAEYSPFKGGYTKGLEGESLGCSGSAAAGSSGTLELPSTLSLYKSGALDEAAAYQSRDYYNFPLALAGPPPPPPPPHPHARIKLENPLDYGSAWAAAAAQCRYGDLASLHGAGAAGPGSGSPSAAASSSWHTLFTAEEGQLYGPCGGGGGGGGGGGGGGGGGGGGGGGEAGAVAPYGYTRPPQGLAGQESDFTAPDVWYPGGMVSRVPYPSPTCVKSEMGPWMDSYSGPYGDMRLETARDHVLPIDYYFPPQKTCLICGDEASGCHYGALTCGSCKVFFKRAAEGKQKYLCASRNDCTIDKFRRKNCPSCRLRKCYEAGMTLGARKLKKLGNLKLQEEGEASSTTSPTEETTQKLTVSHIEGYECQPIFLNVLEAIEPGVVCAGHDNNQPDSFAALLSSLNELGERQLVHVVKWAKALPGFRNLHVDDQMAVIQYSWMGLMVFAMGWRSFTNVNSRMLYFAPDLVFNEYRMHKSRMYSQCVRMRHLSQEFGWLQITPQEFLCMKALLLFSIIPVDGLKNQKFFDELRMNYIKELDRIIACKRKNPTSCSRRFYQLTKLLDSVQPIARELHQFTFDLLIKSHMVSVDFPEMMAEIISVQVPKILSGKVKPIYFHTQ
Briefly: Competitive AR binding assay against [3H]-R1881 in transiently transfected COS-1 cells. The settings on record: compound 13.4 μM, [3H]-R1881 1.34 nM, complete inhibition equals 100%; for inhibition at 13.4 µM: read-out: Inhibition of [3H]-R1881 binding at 1.34 nM ± S.D. The protocol: Competitive AR Binding Assay.
AR binding was measured by a competitive assay against [^3H]-R1881 (PerkinElmer) in transiently transfected COS-1 cells. One day before transfection, COS-1 cells were seeded into 2 ml of DMEM (Dulbecco's modified Eagle medium, Gipco) with 10% dextran-charcoal-treated fetal bovine serum and 0.25% (vol/vol) Penicillin-Streptomysin (Euroclone) at a density of 140×10^3 cells/well. After medium change to DMEM 2.5% FBS, the cells were transfected for 24 hours with 10 ng/well of human AR expression vector pSG5 hAR by using the TransIT method (Micrus Bio TransIT LT1, Transfection Reagent). After 36 hours, the cells where treated with tested compounds using 10000 fold molarities compared to labelled R1881 (1.34 nM). After 2 hours of incubation at 37° C., the medium was removed. The cells were removed from the wells to 150 μl of 1× phosphate buffered saline (PBS), transferred to Eppendorf tubes and centrifuged at 4° C. using 4000×g for 5 min, and then washed twice with 150 μl of PBS. The cell pellets were dissolved to 50 μl of 0.5M NaOH and incubated for 15 min at 56° C., after which the samples (three replicates for each sample compound) were transferred to liquid twinkle tubes with 3 ml of OptiPhase HiSafe 3 twinkle solution (PerkinElmer) and radioactivity of AR-bound [^3H]-R1881 determined. The results were measured with LKB WALLAC 1214 racbeta equipment. The ability of test compounds to bind AR is reported as reduction in bound radioactivity obtained with 1.34 nM [^3H]-R1881.
The results (% inhibition) were calculated as: % inhibition=100−[100×(averagecompound/average[3H]-R1881)].

For assay [2], the target named is T1, human AR. As to the kind of experiment: AR antagonism assay: inhibition of transcriptional activation of AR (Probasin-luc reporter, COS-1 cells). The class given is cell-based. The conditions noted are these: compound 10.0 μM, relative luciferase response: 100% for testosterone (no antiandrogenic effect), 0% for complete antagonism; for remaining activity at 10 µM: COS-1, 18 h, read-out: AR antagonism against 100 nM testosterone ± S.D. The protocol: Determination of the Antiandrogen Activity.
Testosterone was bought from Sigma Chemical Co. (St. Louis, Mo.) and hydroxyflutamide from Chemos GmbH. One day before transfection, COS-1 cells (from ATCC) were seeded into 1 ml of DMEM (Dulbecco's modified Eagle medium, Gibco) with 10% dextran-charcoal-treated fetal bovine serum and 0.25% (vol/vol) Penicillin-Streptomycin (Euroclone) at a density of 70×10^3 cells/well. After medium change to DMEM 2.5% FBS, the cells were transfected for 24 hours with 10 ng/well of human AR expression vector pSG5-hAR, 100 ng/well of reporter plasmid Probasin-luc, and 10 ng/well of control plasmid pCMV-β-gal by using the TransIT method (Micrus Bio TransIT LT1, Transfection Reagent). After the transfection, the cells received treatment of test compounds giving final concentration of 10 μM for each compound. In the antagonist test the wells were also treated with 100 nM final concentration of testosterone. After 18 hours, the cells were washed, lysed and assayed for luciferase and normalization for β-galactosidase activities and protein concentrations. The cells were washed with 100 μl of cold phosphate buffered saline (PBS) and lysed with 35 μl 1× Reporter lysis Buffer (Promega) and frozen (−70° C.) for 30 minutes. Cell lysates were placed in 1.5-ml propylene tubes and centrifuged at 13200×g for 5 minutes at room temperature. For β-galactosidase assay 10 μl of supernatant from each cell extract was transferred to a 96-well plate (96 well Elisa Microplates, PS, Microcon) and incubated for 10 minutes at 37° C. with 65 μl of reaction mixture consisting 0.76 μl 100×Mg-buffer, 12.5 μl ONPG (4 mg/ml), and 54.3 μl of sodium-phosphate buffer (pH 7). The reaction was stopped with treatment of 125 μl Na2CO3. For luciferase assay 10 μl of the supernatant was transferred to a 96-well plate (Greiner Microlon lumitrac 200) and treated with 30 μl of luciferase assay substrate solution (Promega Luciferase Assay System E1501). For the study of protein concentrations 5 μl of the supernatant was transferred to a 96-well plate (Elisa Microplates, PS, Microcon) and mixed with 200 μl of Bio-rad protein assay reagent. The luciferase activities were measured with Thermo Luminoscan Ascent scanner and the protein concentrations and β-galactosidase activities with Thermo Labsystem Multiscan Ex scanner. Also blank and control samples were measured. During the maintenance, transfection, and treatment with tested compounds the cells were incubated in humidified atmosphere with 5% carbon dioxide at 37° C.

By inhibition is commonly meant the share of the control response that was lost under treatment.

Molecules are shown by their SMILES. Read-outs that look alike come from different tables or passages of the source.

With `N#Cc1ccc(C2=NOC3CCCC23)cc1C(F)(F)F` (single isomer, unassigned) [Example 85a, 4-(4,5,6,6a-Tetrahydro-3aH-cyclopenta[d]isoxazol-3-yl)-2-trifluoromethyl-benzonitrile], the inhibition at 13.4 µM in assay [1] (Table 2) was 87.6 ± 0.3%. For the same compound, the “AR antagonism against 100 nM testosterone ± S.D.” value (shortened to “AR antagonism”) in assay [2] is 44.9 ± 3.6%.
As for `N#Cc1ccc(C2=NOC3CCCC23)cc1C(F)(F)F` (single isomer, unassigned) [Example 85b, 4-(4,5,6,6a-Tetrahydro-3aH-cyclopenta[d]isoxazol-3-yl)-2-trifluoromethyl-benzonitrile], the “Inhibition of [3H]-R1881 binding at 1.34 nM ± S.D.” value (“Inhibition of [3H]-R1881 binding” for short) in assay [1] (Table 2) was found to be 91.8 ± 1.7%. Besides, the “AR antagonism” value in assay [2] amounted to 18.9 ± 0.5%.
In the case of `N#Cc1ccc(C2=NOC3CCCCCCC23)c(C(F)(F)F)c1` (single isomer, unassigned) [Example 93a, 4-(3a,4,5,6,7,8,9,9a-Octahydro-cycloocta[d]isoxazol-3-yl)-3-trifluoromethyl-benzonitrile], the inhibition at 13.4 µM in assay [1] (Table 3) came to 87.2 ± 2.9%. Besides, the “AR antagonism” value in assay [2] was 9.4 ± 0.3%.
For the compound `N#Cc1ccc(C2=NOC3CCCCCCC23)c(C(F)(F)F)c1` (single isomer, unassigned) [Example 93b, 4-(3a,4,5,6,7,8,9,9a-Octahydro-cycloocta[d]isoxazol-3-yl)-3-trifluoromethyl-benzonitrile], the “Inhibition of [3H]-R1881 binding” value in assay [1] (Table 3) is 76.0 ± 4.8%. The “AR antagonism” value in assay [2] is given as 65.5 ± 9.0%.
As for `N#Cc1cccc(C2=NOC3CCCCC23)c1C(F)(F)F` (single isomer, unassigned) [Example 94a, 3-(3a,4,5,6,7,7a-Hexahydro-benzo[d]isoxazol-3-yl)-2-trifluoromethyl-benzonitrile], the inhibition at 13.4 µM in assay [1] (Table 3) stood at 97.4 ± 0.4%. For the same compound, in assay [2], the “AR antagonism” value was 17.8 ± 3.9%.
Take `N#Cc1cccc(C2=NOC3CCCCC23)c1C(F)(F)F` (single isomer, unassigned) [Example 94b, 3-(3a,4,5,6,7,7a-Hexahydro-benzo[d]isoxazol-3-yl)-2-trifluoromethyl-benzonitrile]: in assay [1] (Table 3), the “Inhibition of [3H]-R1881 binding” value is 97.6 ± 0.2%. In addition, in assay [2], the “AR antagonism” value stood at 5.4 ± 1.7%.
Consider `Fc1ccc(C2=NOC3CCCC23)cc1C(F)(F)F` (centres unmarked) [Example 19ab, 3-(4-Fluoro-3-trifluoromethyl-phenyl)-4,5,6,6a-tetrahydro-3aH-cyclopenta[d]-isoxazole], for which the inhibition at 13.4 µM in assay [1] (Table 2) is 84.6 ± 4.9%. Also, the remaining activity at 10 µM in assay [2] was 54.6 ± 2.3%.
`Fc1ccc(C2=NOC3CCCC23)c(C(F)(F)F)c1` (centres unmarked) [Example 20a, 3-(4-Fluoro-2-trifluoromethyl-phenyl)-4,5,6,6a-tetrahydro-3aH-cyclopenta[d]isoxazole]: the inhibition at 13.4 µM in assay [1] (Table 3) stood at 89.3 ± 3.8%. For the same compound, the remaining activity at 10 µM in assay [2] came out at 23.2 ± 0.5%.
With `Fc1ccc(C2=NOC3CCCC23)c(C(F)(F)F)c1` (centres unmarked) [Example 20b, 3-(4-Fluoro-2-trifluoromethyl-phenyl)-4,5,6,6a-tetrahydro-3aH-cyclopenta[d]isoxazole], in assay [1] (Table 3), the “Inhibition of [3H]-R1881 binding” value amounted to 85.3 ± 2.8%. For the same compound, the “AR antagonism” value in assay [2] is 37.4 ± 7.3%.
On to `O=[N+]([O-])c1ccc(C2=NOC3CCCC23)c(C(F)(F)F)c1` (centres unmarked) [Example 22ab, 3-(4-Nitro-2-trifluoromethyl-phenyl)-4,5,6,6a-tetrahydro-3aH-cyclopenta[d]isoxazole], for which the inhibition at 13.4 µM in assay [1] (Table 3) came to 89.3 ± 4.7%. In assay [2], the remaining activity at 10 µM was determined as 21.8 ± 4.1%.
Take `Fc1ccc(C2=NOC3CCCCC23)cc1C(F)(F)F` (centres unmarked) [Example 35ab, 3-(4-Fluoro-3-trifluoromethyl-phenyl)-3a,4,5,6,7,7a-hexahydro-benzo-[d]-isoxazole]: in assay [1] (Table 2), the inhibition at 13.4 µM was 88.5 ± 4.2%. Further, the remaining activity at 10 µM in assay [2] amounted to 53.4 ± 5.4%.
The like results for `Fc1ccc(C2=NOC3CCCCC23)c(C(F)(F)F)c1` (centres unmarked) [Example 36a, 3-(4-Fluoro-2-trifluoromethyl-phenyl)-3a,4,5,6,7,7a-hexahydro-benzo[d]-isoxazole] were, in that order, 84.6 ± 0.7% and 49.7 ± 5.1%.
Regarding `Fc1ccc(C2=NOC3CCCCC23)c(C(F)(F)F)c1` (centres unmarked) [Example 36b, 3-(4-Fluoro-2-trifluoromethyl-phenyl)-3a,4,5,6,7,7a-hexahydro-benzo[d]-isoxazole], in assay [1] (Table 2), the “Inhibition of [3H]-R1881 binding” value is listed as 87.7 ± 3.0%. Further, the “AR antagonism” value in assay [2] was determined as 30.0 ± 6.1%.
In the case of `O=[N+]([O-])c1ccc(C2=NOC3CCCCC23)cc1C(F)(F)F` (centres unmarked) [Example 37ab, 3-(4-Nitro-3-trifluoromethyl-phenyl)-3a,4,5,6,7,7a-hexahydro-benzo-[d]-isoxazole], in assay [1] (Table 1), the inhibition at 13.4 µM was 93.5 ± 0.9%. Also, the remaining activity at 10 µM in assay [2] came out at 10.6 ± 1.6%.
As to `Fc1ccc(C2=NOC3CCCCCC23)cc1C(F)(F)F` (centres unmarked) [Example 39ab, 3-(4-Fluoro-3-trifluoromethyl-phenyl)-4,5,6,7,8,8a-hexahydro-3aH-cyclohepta[d]isoxazole], the inhibition at 13.4 µM in assay [1] (Table 2) came to 55.7 ± 5.8%. Moreover, the remaining activity at 10 µM in assay [2] was found to be 43.8 ± 2.4%.
For the compound `Fc1ccc(C2=NOC3CCCCCC23)c(C(F)(F)F)c1` (centres unmarked) [Example 40a, 3-(4-Fluoro-2-trifluoromethyl-phenyl)-4,5,6,7,8,8a-hexahydro-3aH-cyclohepta[d]isoxazole], in assay [1] (Table 2), the inhibition at 13.4 µM stood at 88.8 ± 3.1%. For the same compound, the remaining activity at 10 µM in assay [2] worked out at 28.8 ± 2%.
